In ChEMBL document CHEMBL1156740, “A bivalent ligand (KMN-21) antagonist for mu/kappa heterodimeric opioid receptors” (Bioorg Med Chem Lett, 2009):
Activity calls are given as the source filed them.

Tests used:
Assay type in all cases: functional, cell-based
[1] = target: Mu-type opioid receptor (Homo sapiens) (UniProt P35372); test: Antagonistic activity at mu opioid receptor expressed in HEK293 cells co-transfected with chimeric G-protein delta 6-Gqi4-myr assessed as inhibition of DAMGO-induced calcium release at 1 uM
Sequence of Mu-type opioid receptor (Homo sapiens) (P35372 whole entry): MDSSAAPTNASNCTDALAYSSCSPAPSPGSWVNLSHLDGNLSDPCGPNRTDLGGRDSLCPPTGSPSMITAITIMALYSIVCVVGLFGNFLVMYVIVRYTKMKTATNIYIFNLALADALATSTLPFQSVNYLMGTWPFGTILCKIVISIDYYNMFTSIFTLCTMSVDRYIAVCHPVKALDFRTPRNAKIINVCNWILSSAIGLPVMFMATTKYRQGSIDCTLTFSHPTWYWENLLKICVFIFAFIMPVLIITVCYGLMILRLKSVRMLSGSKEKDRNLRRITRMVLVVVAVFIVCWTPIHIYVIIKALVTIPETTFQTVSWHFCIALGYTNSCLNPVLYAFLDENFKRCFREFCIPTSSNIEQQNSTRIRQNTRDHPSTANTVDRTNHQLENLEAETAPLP

[2] = target: Kappa-type opioid receptor (Homo sapiens) (UniProt P41145); test: Antagonistic activity at kappa opioid receptor expressed in HEK293 cells co-transfected with chimeric G-protein delta 6-Gqi4-myr assessed as inhibition of U69593-induced calcium release at 1 uM
Sequence of Kappa-type opioid receptor (Homo sapiens) (P41145 whole entry): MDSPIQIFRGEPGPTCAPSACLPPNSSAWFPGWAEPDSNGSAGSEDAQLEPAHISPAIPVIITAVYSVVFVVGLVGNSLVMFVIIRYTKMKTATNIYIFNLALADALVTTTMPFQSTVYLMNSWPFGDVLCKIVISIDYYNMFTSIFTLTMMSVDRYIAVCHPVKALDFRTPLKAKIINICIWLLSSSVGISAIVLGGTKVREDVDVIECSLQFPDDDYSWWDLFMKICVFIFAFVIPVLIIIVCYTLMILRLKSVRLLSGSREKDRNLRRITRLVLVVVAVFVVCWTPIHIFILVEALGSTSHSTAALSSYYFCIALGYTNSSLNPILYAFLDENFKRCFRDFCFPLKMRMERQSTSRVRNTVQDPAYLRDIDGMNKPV

[3] = target: T1, Opioid receptors; mu & kappa (Homo sapiens) (UniProt P41145+P35372); test: Antagonistic activity at mu/kappa opioid receptor expressed in HEK293 cells co-transfected with chimeric G-protein delta 6-Gqi4-myr assessed as inhibition of U69593-induced calcium release at 1 uM
T1 sequence (P35372 whole entry, looked up): as the sequence (P35372 whole entry) above
T1 sequence (P41145 whole entry, looked up): as the sequence (P41145 whole entry) above

[4] = target: T1, Opioid receptors; mu & kappa (Homo sapiens); test: Antagonistic activity at mu/kappa opioid receptor expressed in HEK293 cells co-transfected with chimeric G-protein delta 6-Gqi4-myr assessed as inhibition of DAMGO-induced calcium release at 1 uM

Measured: Activity

N=C(NCCNC(=O)CNC(=O)CNC(=O)CCC(=O)NCC(=O)NCC(=O)N[C@H]1C[C@@H]2Oc3c(O)ccc4c3[C@@]23CCN(CC2CC2)[C@H](C4)[C@]3(O)C1)Nc1ccc2[nH]c3c(c2c1)C[C@@]1(O)[C@H]2Cc4ccc(O)c5c4[C@@]1(CCN2CC1CC1)[C@H]3O5
active: all assays above

N=C(NCCCNC(=O)CNC(=O)CNC(=O)CCC(=O)NCC(=O)NCC(=O)N[C@H]1C[C@@H]2Oc3c(O)ccc4c3[C@@]23CCN(CC2CC2)[C@H](C4)[C@]3(O)C1)Nc1ccc2[nH]c3c(c2c1)C[C@@]1(O)[C@H]2Cc4ccc(O)c5c4[C@@]1(CCN2CC1CC1)[C@H]3O5
active: all assays above

N=C(NCCCCNC(=O)CNC(=O)CNC(=O)CCC(=O)NCC(=O)NCC(=O)N[C@H]1C[C@@H]2Oc3c(O)ccc4c3[C@@]23CCN(CC2CC2)[C@H](C4)[C@]3(O)C1)Nc1ccc2[nH]c3c(c2c1)C[C@@]1(O)[C@H]2Cc4ccc(O)c5c4[C@@]1(CCN2CC1CC1)[C@H]3O5
active: all assays above

N=C(NCCCCCNC(=O)CNC(=O)CNC(=O)CCC(=O)NCC(=O)NCC(=O)N[C@H]1C[C@@H]2Oc3c(O)ccc4c3[C@@]23CCN(CC2CC2)[C@H](C4)[C@]3(O)C1)Nc1ccc2[nH]c3c(c2c1)C[C@@]1(O)[C@H]2Cc4ccc(O)c5c4[C@@]1(CCN2CC1CC1)[C@H]3O5
active: all assays above
